Measurements reported in publication PMC10313180, “Structure snapshots reveal the mechanism of a bacterial membrane lipoprotein N-acyltransferase” (Science Advances, 2023).
No end group written: not given here. *: point of attachment. dipalmitoylglyceryl = dipalmitoylglyceryl (diacylglyceryl moiety on the cysteine); Palmitoyl = CCCCCCCCCCCCCCCC(=O)*

Assays:
LntEco [1] = target: T1, LntEco (Escherichia coli, UniProt P23930); test: TLC of FP2 to FP3 conversion; type: biochemical; settings: acyl donor, HA-treated enzyme; 500 uM GPL, 150 uM FP2, pH 7.5, 37 C, 90 min
T1 construct: gene lnt; full length, N-terminal thrombin-cleavable His6 tag, pET28a, expressed in E. coli C43(DE3); membrane protein in LMNG or DDM micelles; 57 kDa; HA-treated for GPL specificity assay

LntPae [2] = target: T2, LntPae (Pseudomonas aeruginosa, UniProt Q9ZI86); test: TLC of FP2 to FP3 conversion; type: biochemical; settings: acyl donor, HA-treated enzyme; 500 uM GPL, 150 uM FP2, pH 7.5, 37 C, 90 min
T2 construct: gene lnt; full length, N-terminal thrombin-cleavable His6 tag, pET28a, expressed in E. coli C41(DE3); membrane protein in LMNG micelles or cubic mesophase
T2 sequence (Q9ZI86 1-511): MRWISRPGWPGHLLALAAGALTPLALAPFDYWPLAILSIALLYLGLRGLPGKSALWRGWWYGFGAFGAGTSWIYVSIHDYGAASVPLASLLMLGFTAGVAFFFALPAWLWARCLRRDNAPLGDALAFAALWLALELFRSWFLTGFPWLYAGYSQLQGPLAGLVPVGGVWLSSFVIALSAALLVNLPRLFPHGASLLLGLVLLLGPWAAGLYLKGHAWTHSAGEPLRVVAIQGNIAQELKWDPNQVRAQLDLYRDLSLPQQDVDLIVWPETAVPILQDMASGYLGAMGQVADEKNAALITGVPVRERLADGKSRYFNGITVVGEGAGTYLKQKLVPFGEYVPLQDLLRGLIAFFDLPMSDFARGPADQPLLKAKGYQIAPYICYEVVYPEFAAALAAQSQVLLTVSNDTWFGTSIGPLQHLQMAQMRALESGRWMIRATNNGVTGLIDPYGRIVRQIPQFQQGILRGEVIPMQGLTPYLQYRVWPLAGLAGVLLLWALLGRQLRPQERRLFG

LntPae [3] = target: T2, LntPae; test: X-ray crystallography (in meso); type: binding; settings: covalent; at catalytic Cys382; two monooleins in pocket; 2.6 A
LntEco [4] = target: T1, LntEco; test: X-ray crystallography (in surfo); type: binding; settings: covalent; dithiocarbamate at catalytic Cys387; lyso-PE also bound; 2.66 A
[5] = target: T3, LntEco Cys387Ala (apolipoprotein N-acyltransferase from E. coli, inactive mutant) (E. coli, UniProt P23930 1-512, Cys387Ala); test: cryo-EM structure; Lnt mutant (16 mg/ml) incubated with Pam3CSK4 or FP2 (10 mg/ml in DMSO) for 1 hour at 21°C, then Superdex 200 10/300 Increase in 20 mM sodium citrate pH 6, 150 mM NaCl, 0.001% LMNG; protein in a detergent micelle; settings: both partners purified
T3 construct: Apolipoprotein N-acyltransferase Lnt, E. coli, 57-kDa membrane protein; gene synthesized and cloned into pET28a (Nde I/Xho I); residues counted in E. coli numbering; The His6 tag is thrombin-cleavable; no cleavage step is described; In a detergent micelle (LMNG); also called Lnt Cys387Ala; C387A; source: E. coli C43(DE3), purified (Ni-NTA, Superdex 200) in LMNG

CCCCCCCC/C=C\CCCCCCCC(=O)O[C@H](COC(=O)CCCCCCCCCCCCCCC)COP(=O)(O)OCCN [POPE, palmitoyloleoylphosphatidylethanolamine]
TLC of FP2 to FP3 conversion (LntEco [1]): (POPE) were effective acyl donors for LntEco and LntPae
TLC of FP2 to FP3 conversion (LntPae [2]): (POPE) were effective acyl donors for LntEco and LntPae

CCCCCCCCCCCCCCN=C=S [TITC, tetradecyl-1-isothiocyanate]
X-ray crystallography (in meso) (LntPae [3]): a structure of the TITC-modified LntPae was obtained with two monooleins in the binding pocket
X-ray crystallography (in surfo) (LntEco [4]): Crystals of the TITC-modified protein (Lnt-TITC), grown in the presence of E. coli GPLs

CCCCCCCC/C=C\CCCCCCCC(=O)O[C@H](COC(=O)CCCCCCCCCCCCCCC)COP(=O)(O)OCC(O)CO (stereo partly shown) [POPG, palmitoyloleoylphosphatidylglycerol]
TLC of FP2 to FP3 conversion (LntEco [1]): palmitoyloleoylphosphatidylglycerol (POPG) and palmitoyloleoylphosphatidylethanolamine (POPE) were effective acyl donors for LntEco
TLC of FP2 to FP3 conversion (LntPae [2]): (POPE) were effective acyl donors for LntEco and LntPae

B1: Pam3CSK4, Cys(Pam3)-Ser-(Lys)4 (peptide)
peptide: Palmitoyl-C(dipalmitoylglyceryl)SKKKK
notes: Printed in three-letter code: Cys-Ser-Lys-Lys-Lys-Lys; triacylated bacterial lipoprotein peptide analog; Triacylated lipopeptide; also called TA-BLPtide product; BLPtide; source: synthetic peptide (commercial or in-house synthesized BLP peptide analog)
binding result [5]: binds
